# Measurements as given in patent US10294202B2, “Pyrrolidinones as herbicides” (FMC Corporation, priority 2013, dated 2019).
# Columns and labels:
# [1] = tested on: giant foxtail; experiment: Test A pre-/postemergence herbicide test; type: in vivo, Setaria faberii
# In short: (§1)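 Directed soil spray to seeded pots (preemergence) or spray onto one- to two-leaf seedlings 2–10 cm tall (postemergence); loam/sand substrate throughout. Evaluated visually after about 10 days against untreated plants, 0 = no effect, 100 = complete control.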
# [2] = tested on: galium; experiment: Test C pre-/postemergence herbicide test; type: in vivo, Galium aparine
# In short: (§2)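 Two application timings ran in parallel with identically formulated test chemicals (non-phytotoxic solvent, surfactant included): spray on seeded loam–sand soil, and spray on emerged plants 2 to 18 cm high. Evaluation at 13 to 15 days compared each species with controls, rated from 0 up to 100.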
# [3] = tested on: morningglory; experiment: Test C pre-/postemergence herbicide test; type: in vivo, Ipomoea coccinea
# In short: as §2
# [4] = tested on: lambsquarters; experiment: Test C pre-/postemergence herbicide test; type: in vivo, Chenopodium album
# In short: as §2
# [5] = tested on: foxtail, giant; experiment: Test C pre-/postemergence herbicide test; type: in vivo, Setaria faberii
# In short: as §2
# [6] = tested on: oat, wild; experiment: Test C pre-/postemergence herbicide test; type: in vivo, Avena fatua; conditions: Postemergence
# In short: as §2
# [7] = tested on: crabgrass, large; experiment: Test C pre-/postemergence herbicide test; type: in vivo, Digitaria sanguinalis
# In short: as §2
# [8] = tested on: barnyardgrass; experiment: Test A pre-/postemergence herbicide test; type: in vivo, Echinochloa crus-galli
# In short: as §1
# [9] = tested on: velvetleaf; experiment: Test C pre-/postemergence herbicide test; type: in vivo, Abutilon theophrasti
# In short: as §2
# [10] = tested on: pigweed; experiment: Test A pre-/postemergence herbicide test; type: in vivo, Amaranthus retroflexus
# In short: as §1
# [11] = tested on: barnyardgrass; experiment: Test C pre-/postemergence herbicide test; type: in vivo, Echinochloa crus-galli
# In short: as §2
# [12] = tested on: waterhemp; experiment: Test C pre-/postemergence herbicide test; type: in vivo, Amaranthus rudis
# In short: as §2
# [13] = Postemergence, 125 g ai/ha, visual rating on 0 to 100 scale (0 no effect, 100 complete control), approx. 10 days
# [14] = Postemergence, 500 g ai/ha, 0 to 100 scale (0 no effect, 100 complete control)
# [15] = Preemergence, 125 g ai/ha, 0 to 100 scale where 0 is no effect and 100 is complete control
# [16] = Preemergence, 500 g ai/ha, visual rating on 0 to 100 scale (0 no effect, 100 complete control)
# [17] = Postemergence, 31 g ai/ha, scale 0 to 100 (0 no effect, 100 complete control)
# [18] = Postemergence, 62 g ai/ha, scale 0 (no effect) to 100 (complete control)
# [19] = Postemergence, 125 g ai/ha, scale 0 to 100 (0 no effect, 100 complete control)
# [20] = Postemergence, 250 g ai/ha, scale 0 to 100 (0 no effect, 100 complete control)
# [21] = Preemergence, 31 g ai/ha, scale 0 to 100, 0 is no effect and 100 is complete control
# [22] = Preemergence, 62 g ai/ha, scale 0 to 100 (0 no effect, 100 complete control)
# [23] = Preemergence, 125 g ai/ha, scale 0 to 100 (0 no effect, 100 complete control)
structure (smiles),measurement,setting,value
CN1CC(c2ccc(F)c(F)c2)C(C(=O)Nc2ccccc2F)C1=O (centres unmarked) [Compound 302],"Plant response rating, Foxtail, Giant",[1]; [13],80
same,"Plant response rating, Foxtail, Giant",[1]; [14],80
same,"Plant response rating, Foxtail, Giant",[1]; [15],90
same,"Foxtail, Giant plant response rating",[1]; [16],90
same,"Plant response rating, Galium",[2]; [17],10
same,"Plant response rating, Galium",[2]; [18],15
same,"Plant response rating, Galium",[2]; [19],10
same,"Plant response rating, Galium",[2]; [20],45
same,Galium plant response rating,[2]; [21],0
same,Galium plant response rating,[2]; [22],5
same,"Plant response rating, Galium",[2]; [23],85
same,"Plant response rating (scale of 0 to 100), Galium","[2]; Preemergence, 250 g ai/ha",85
same,"Plant response rating, Morningglory",[3]; [17],10
same,"Plant response rating, Morningglory",[3]; [18],15
same,"Plant response rating, Morningglory",[3]; [19],50
same,"Plant response rating, Morningglory",[3]; [20],25
same,Morningglory plant response rating,[3]; [21],0
same,Morningglory plant response rating,[3]; [22],0
same,"Plant response rating, Morningglory",[3]; [23],0
same,"Plant response rating (scale of 0 to 100), Morningglory","[3]; Preemergence, 250 g ai/ha",0
same,"Plant response rating, Lambsquarters",[4]; [17],10
same,"Plant response rating, Lambsquarters",[4]; [18],20
same,"Plant response rating, Lambsquarters",[4]; [19],60
same,"Plant response rating, Lambsquarters",[4]; [20],70
same,Lambsquarters plant response rating,[4]; [21],0
same,Lambsquarters plant response rating,[4]; [22],0
same,"Plant response rating, Lambsquarters",[4]; [23],60
same,"Plant response rating (scale of 0 to 100), Lambsquarters","[4]; Preemergence, 250 g ai/ha",65
same,"Plant response rating, Foxtail, Giant",[5]; [17],0
same,"Plant response rating, Foxtail, Giant",[5]; [18],45
same,"Plant response rating, Foxtail, Giant",[5]; [19],80
same,"Plant response rating, Foxtail, Giant",[5]; [20],80
same,"Foxtail, Giant plant response rating",[5]; [21],90
same,"Foxtail, Giant plant response rating",[5]; [22],95
same,"Plant response rating, Foxtail, Giant",[5]; [23],100
same,"Plant response rating (scale of 0 to 100), Foxtail, Giant","[5]; Preemergence, 250 g ai/ha",100
same,"Plant response rating, Oat, Wild","[6]; 31 g ai/ha, scale 0 to 100 (0 no effect, 100 complete control)",0
same,"Plant response rating, Oat, Wild","[6]; 62 g ai/ha, scale 0 (no effect) to 100 (complete control)",0
same,"Plant response rating, Oat, Wild","[6]; 125 g ai/ha, scale 0 to 100 (0 no effect, 100 complete control)",0
same,"Plant response rating, Oat, Wild","[6]; 250 g ai/ha, scale 0 to 100 (0 no effect, 100 complete control)",0
same,"Plant response rating, Crabgrass, Large",[7]; [17],0
same,"Plant response rating, Crabgrass, Large",[7]; [18],50
same,"Plant response rating, Crabgrass, Large",[7]; [19],70
same,"Plant response rating, Crabgrass, Large",[7]; [20],85
same,"Crabgrass, Large plant response rating",[7]; [21],95
same,"Crabgrass, Large plant response rating",[7]; [22],98
same,"Plant response rating, Crabgrass, Large",[7]; [23],100
same,"Plant response rating (scale of 0 to 100), Crabgrass, Large","[7]; Preemergence, 250 g ai/ha",100
same,"Plant response rating, Barnyardgrass",[8]; [13],90
same,"Plant response rating, Barnyardgrass",[8]; [14],90
same,"Plant response rating, Barnyardgrass",[8]; [15],90
same,Barnyardgrass plant response rating,[8]; [16],90
same,"Plant response rating, Velvetleaf",[9]; [17],0
same,"Plant response rating, Velvetleaf",[9]; [18],0
same,"Plant response rating, Velvetleaf",[9]; [19],0
same,"Plant response rating, Velvetleaf",[9]; [20],20
same,Velvetleaf plant response rating,[9]; [21],0
same,Velvetleaf plant response rating,[9]; [22],0
same,"Plant response rating, Velvetleaf",[9]; [23],0
same,"Plant response rating (scale of 0 to 100), Velvetleaf","[9]; Preemergence, 250 g ai/ha",0
same,"Plant response rating, Pigweed",[10]; [13],0
same,"Plant response rating, Pigweed",[10]; [14],10
same,"Plant response rating, Pigweed",[10]; [15],10
same,Pigweed plant response rating,[10]; [16],60
same,"Plant response rating, Barnyardgrass",[11]; [17],0
same,"Plant response rating, Barnyardgrass",[11]; [18],20
same,"Plant response rating, Barnyardgrass",[11]; [19],40
same,"Plant response rating, Barnyardgrass",[11]; [20],90
same,Barnyardgrass plant response rating,[11]; [21],90
same,Barnyardgrass plant response rating,[11]; [22],85
same,"Plant response rating, Barnyardgrass",[11]; [23],100
same,"Plant response rating (scale of 0 to 100; 0 is no effect, 100 is complete control), Barnyardgrass","[11]; Preemergence, 250 g ai/ha",100
same,"Plant response rating, Waterhemp",[12]; [17],10
same,"Plant response rating, Waterhemp",[12]; [18],20
same,"Plant response rating, Waterhemp",[12]; [19],20
same,"Plant response rating, Waterhemp",[12]; [20],25
same,Waterhemp plant response rating,[12]; [21],30
same,Waterhemp plant response rating,[12]; [22],35
same,"Plant response rating, Waterhemp",[12]; [23],65
same,"Plant response rating (scale of 0 to 100), Waterhemp","[12]; Preemergence, 250 g ai/ha",55
